Reference: patent US12447156B2, “Treating progressive familial intrahepatic cholestasis (PFIC) with IBAT inhibitors” (ALBIREO AB, priority 2020, dated 2025)

Experiments:
patients with PFIC = assay: PEDFIC 2 open-label phase 3 extension trial, interim analysis: efficacy; type: in vivo, human; conditions: for mean change from baseline in sBAs through PEDFIC 2 week 12: odevixibat naive at PEDFIC 2 baseline
Experimental: After treatment in the first trial (Example 1), patients were eligible to enroll in a second trial, a 72-week open-label extension trial. In this ongoing 72-week open-label extension trial, PFIC patients were treated with odevixibat 120 μg/kg/day. The 69 patients (PFIC1 (26%), PFIC2 (65%) or PFIC3 (7%)) treated with 120 μg/kg/day for up to 48 weeks experienced a durable effect on serum bile acids reduction and improvement in growth velocity based on review of z scores for height, weight and BMI, and improvement in ALT, AST and total bilirubin. The effects were maintained for patients treated for 18 months or longer. The example details the interim analysis through 24 weeks of treatment.
Study Design • This phase 3 study included a screening period (for newly enrolled patients [i.e., cohort 2] only) and a 72-week treatment period (FIG. 9) in which all patients received oral, once-daily odevixibat 120 μg/kg. • Patients returned to the clinic 4 and 12 weeks after the first dose of odevixibat and then approximately every 10 to 12 weeks thereafter. • Following the 72-week treatment period, patients either enrolled in an optional extension for continued treatment or returned for a follow-up visit 4 weeks after ending study drug. Outcomes, Assessments, and Statistical Analysis • The primary efficacy outcomes were to assess the effects of odevixibat on sBAs and pruritus, including mean changes and proportion of patients meeting response criteria. • sBA responders were defined as patients who achieved a normalization of sBAs or reduction of ≥70%. • Pruritus responders were defined as patients who achieved a ≥1-point drop on the pruritus assessment. • Secondary outcomes included characterizing the long-term safety and tolerability of odevixibat, as well as the effects of odevixibat on growth, biliary diversion and/or liver transplantation, and markers of cholestasis and liver disease. • For the P1O and PIP groups, there were 2 baselines (PEDFIC 1 baseline and PEDFIC 2 baseline); for those in cohort 2, baseline refers to the value prior to initiation of odevixibat in PEDFIC 2. • This interim analysis focuses on data collected after 24 weeks of treatment in PEDFIC 2. • T tests were used to calculate P values for primary outcomes in the P1O group only; other outcomes were summarized descriptively.

children with PFIC = assay: Pooled PEDFIC 1/2 subgroup analysis by concomitant UDCA and/or rifampicin; type: in vivo, human; conditions: for patients meeting criteria for serum bile acid response: after 48 weeks; for mean proportion of positive pruritus assessments (PPAs): over 48 weeks
Experimental: Methods: In the double-blind PEDFIC 1 study, children with PFIC1 or PFIC2 were randomized to placebo or odevixibat 40 or 120 μg/kg/day for 24 weeks. In PEDFIC 2, an ongoing, open label extension study, patients from PEDFIC 1 or new patients with any PFIC subtype received odevixibat 120 μg/kg/day. Concomitant UDCA and/or rifampicin were allowed if the patient was on a stable dose. This pooled analysis includes up to 48 weeks of odevixibat treatment from PEDFIC 1 and through the PEDFIC 2 interim data cut (37 weeks; range: 1-108 weeks). Pre-specified subgroup analyses evaluated the following outcomes based on use of UDCA and/or rifampicin: serum bile acid response (i.e., ≥70% reduction from baseline or serum bile acid levels ≤70 μmol/L after 48 weeks), proportion of positive pruritus assessments (PPAs) at the patient level (i.e., scratching score ≤1 or a ≥1-point drop from baseline on the validated PRUCISION instrument) over the 48-week treatment period, and treatment-emergent adverse events (TEAEs).

[1] = Cohort 2, through week 24 of PEDFIC 2, n 4
[2] = P1O, through week 24 of PEDFIC 2, n 21
[3] = P1P, through week 24 of PEDFIC 2, n 9
[4] = patients not using UDCA and/or rifampicin
[5] = patients using UDCA and/or rifampicin

CCCCC1(CCCC)CN(c2ccccc2)c2cc(SC)c(OCC(=O)N[C@@H](C(=O)N[C@@H](CC)C(=O)O)c3ccc(O)cc3)cc2S(=O)(=O)N1 [Odevixibat, 1,1-dioxo-3,3-dibutyl-5-phenyl-7-methylthio-8-(N-{(R)-α-[N-((S)-1-carboxypropyl)carbamoyl]-4-hydroxybenzyl}carbamoylmethoxy)-2,3,4,5-tetrahydro-1,2,5-benzothiadiazepine]
PELD/MELD, Mean Change From Baseline (SE) (patients with PFIC; Cohort 2, through week 24 of PEDFIC 2, n 2): 1.7 (5.8)
APRI, Mean Change From Baseline (SE) (patients with PFIC; [1]): 0.1 (0.2)
Serum ALT, Mean Change From Baseline (SE) (patients with PFIC; [1]): −9.8 (31.1) U/L
Serum AST, Mean Change From Baseline (SE) (patients with PFIC; [1]): −7.8 (16.2) U/L
Total bilirubin, Mean Change From Baseline (SE) (patients with PFIC; [1]): −0.2 (0.5) mg/dL
mean sBAs at PEDFIC 2 week 24 (patients with PFIC; P1O group, ~48 weeks cumulative odevixibat exposure, PEDFIC 1 baseline 251.8): 85.1 µmol/L
mean monthly pruritus score at PEDFIC 2 week 24 (patients with PFIC; P1O group, PEDFIC 1 baseline 3.0): 1.4
mean height Z score at week 24 of PEDFIC 2 (patients with PFIC; P1O group, PEDFIC 1 baseline −1.6): −0.5
mean weight Z score after 48 weeks (patients with PFIC; P1O group, baseline −0.9): 0.2
PELD/MELD, Mean Change From Baseline (SE) (patients with PFIC; P1O, through week 24 of PEDFIC 2, n 17): −0.2 (0.3)
APRI, Mean Change From Baseline (SE) (patients with PFIC; P1O, through week 24 of PEDFIC 2, n 18): −0.0 (0.1)
Serum AST, Mean Change From Baseline (SE) (patients with PFIC; P1O, through week 24 of PEDFIC 2, n 20): −14.6 (10.0) U/L
Serum ALT, Mean Change From Baseline (SE) (patients with PFIC; [2]): −26.9 (22.6) U/L
Total bilirubin, Mean Change From Baseline (SE) (patients with PFIC; [2]): −0.2 (0.1) mg/dL
mean sBAs over the course of PEDFIC 2 (patients with PFIC; P1P group (placebo in PEDFIC 1), 120 μg/kg/day, PEDFIC 2 baseline 270.8): 155.6 µmol/L
APRI, Mean Change From Baseline (SE) (patients with PFIC; [3]): 0.1 (0.1)
PELD/MELD, Mean Change From Baseline (SE) (patients with PFIC; [3]): −1.4 (1.2)
Serum ALT, Mean Change From Baseline (SE) (patients with PFIC; [3]): 16.3 (20.7) U/L
Serum AST, Mean Change From Baseline (SE) (patients with PFIC; [3]): −1.7 (5.6) U/L
Total bilirubin, Mean Change From Baseline (SE) (patients with PFIC; [3]): −1.6 (1.3) mg/dL
patients who underwent surgical biliary diversion or had a liver transplant (patients with PFIC; PEDFIC 1 baseline through week 24 of PEDFIC 2, 2 patients): 3%
change in mean sBAs from baseline to week 12 of PEDFIC 2 (patients with PFIC; cohort 2 (newly enrolled), 120 μg/kg/day): -73.1 µmol/L
mean sBAs at week 12 of PEDFIC 2 (patients with PFIC; cohort 2 (newly enrolled), 120 μg/kg/day, baseline 221.5): 157.0 µmol/L
mean change from baseline in sBAs through PEDFIC 2 week 12 (patients with PFIC; PFIC1, n=5): −31.7
mean change from baseline in sBAs through PEDFIC 2 week 12 (patients with PFIC; PFIC2, n=17): −120.8
mean change from baseline in sBAs through PEDFIC 2 week 12 (patients with PFIC; PFIC3, n=3): −107.5
average sBAs relative to published threshold for PFIC2 disease modification (patients with PFIC; patients treated for 48 weeks): fell below the published threshold for PFIC2 disease modification
patients meeting criteria for serum bile acid response (children with PFIC; patients not using UDCA): 40%
patients meeting criteria for serum bile acid response (children with PFIC; [4]): 67%
patients meeting criteria for serum bile acid response (children with PFIC; patients not using rifampicin): 82%
patients meeting criteria for serum bile acid response (children with PFIC; patients using UDCA): 74%
patients meeting criteria for serum bile acid response (children with PFIC; [5]): 67%
patients meeting criteria for serum bile acid response (children with PFIC; patients using rifampicin): 54%
mean proportion of positive pruritus assessments (PPAs) (children with PFIC; patients not using UDCA): 72%
mean proportion of positive pruritus assessments (PPAs) (children with PFIC; [4]): 69%
mean proportion of positive pruritus assessments (PPAs) (children with PFIC; patients not using rifampicin): 81%
mean proportion of positive pruritus assessments (PPAs) (children with PFIC; patients using UDCA): 65%
mean proportion of positive pruritus assessments (PPAs) (children with PFIC; [5]): 66%
mean proportion of positive pruritus assessments (PPAs) (children with PFIC; patients using rifampicin): 56%
incidence of TEAEs (children with PFIC; patients not using UDCA): 87%
incidence of TEAEs (children with PFIC; [4]): 90%
incidence of TEAEs (children with PFIC; patients not using rifampicin): 86%
incidence of TEAEs (children with PFIC; patients using UDCA): 77%
incidence of TEAEs (children with PFIC; [5]): 78%
incidence of TEAEs (children with PFIC; patients using rifampicin): 75%
